# Reference: US20240239755A1, “SUBSTITUTED PYRIDAZINONES, SALTS OR N-OXIDES THEREOF AND THEIR USE AS HERBICIDALLY ACTIVE SUBSTANCES” (Bayer Aktiengesellschaft, priority 2021, published 2024)
# Tests used:
# Format in all cases: in vivo
# [1] = tested on: Lolium rigidum (LOLRI); experiment: Herbicidal pre-emergence action, 1280 g/ha (Table A5); conditions: visual grading after ca. 3 weeks vs untreated controls
# From the text: (§1) Seeds of mono- and dicotyledonous weed plants were sown in plastic pots (double sowings with one species of mono- and one species of dicotyledonous weed plants per pot), in sandy loam, and covered with soil. The compounds according to the invention, formulated in the form of wettable powders (WP) or as emulsifiable concentrates (EC), were applied to the surface of the covering soil as an aqueous suspension or as an emulsion, with the addition of 0.5% of an additive, at an application rate of 600 litres of water per hectare (converted). Following treatment, the pots were placed in a greenhouse and kept under optimum growth conditions for the test plants. The visual grading of the damage to the test plants was carried out after ca. 3 weeks in comparison to untreated controls (herbicidal effect in percent (%): 100% effect=plants have died, 0% effect=as control plants). Tables A1 to A11 below, show the effects of selected compounds of the general formula (I) according to Table 1 on various harmful plants and an application rate corresponding to 1280 g/ha obtained by the experimental procedure mentioned above.
# [2] = tested on: Poa annua (POAAN); experiment: Herbicidal pre-emergence action, 1280 g/ha (Table A7); conditions: visual grading after ca. 3 weeks vs untreated controls
# From the text: as §1
# [3] = tested on: Stellaria media (STEME); experiment: Herbicidal pre-emergence action, 1280 g/ha (Table A9); conditions: visual grading after ca. 3 weeks vs untreated controls
# From the text: as §1
# [4] = tested on: Kochia scoparia (KCHSC); experiment: Herbicidal post-emergence action, 1280 g/ha (Table B4); conditions: visual assessment after ca. 3 weeks vs untreated controls
# From the text: (§2) Seeds of mono- and dicotyledonous weed plants were sown in plastic pots (double sowings with one species of mono- and one species of dicotyledonous weed plants per pot), in sandy loam, covered with soil and grown under controlled growth conditions. 2 to 3 weeks after sowing, the test plants were sprayed in the single-leaf stage. The compounds according to the invention, formulated in the form of wettable powders (WP) or as emulsifiable concentrates (EC), were sprayed onto the green plant parts as an aqueous suspension or as an emulsion, with the addition of 0.5% of an additive, at an application rate of 600 litres of water per hectare (converted). The test plants were placed in the greenhouse for ca. 3 weeks under optimum growth conditions, and then the effect of the preparations was assessed visually in comparison with untreated controls (herbicidal effect in percent (%): 100% effect=plants have died, 0% effect=as control plants). Tables B1 to B11 below, show the effects of selected compounds of the general formula (I) according to Table 1 on various harmful plants using an application rate corresponding to 1280 g/ha obtained by the experimental procedure mentioned above.
# [5] = tested on: Lolium rigidum (LOLRI); experiment: Herbicidal post-emergence action, 1280 g/ha (Table B5); conditions: visual assessment after ca. 3 weeks vs untreated controls
# From the text: as §2
# [6] = tested on: Matricaria inodora (MATIN); experiment: Herbicidal post-emergence action, 1280 g/ha (Table B6); conditions: visual assessment after ca. 3 weeks vs untreated controls
# From the text: as §2
# [7] = tested on: Stellaria media (STEME); experiment: Herbicidal post-emergence action, 1280 g/ha (Table B9); conditions: visual assessment after ca. 3 weeks vs untreated controls
# From the text: as §2
# [8] = tested on: Veronica persica (VERPE); experiment: Herbicidal post-emergence action, 1280 g/ha, VERPE; conditions: visual grading vs untreated controls
# From the text: as §2, with “plants).” for “plants). Tables B1 to B11 below, show the effects of selected compounds of the general formula (I) according to Table 1 on various harmful plants using an application rate corresponding to 1280 g/ha obtained by the experimental procedure mentioned above.”
# (§3) Tables B1 to B11 below, show the effects of selected compounds of the general formula (I) according to Table 1 on various harmful plants using an application rate corresponding to 1280 g/ha obtained by the experimental procedure mentioned above.
# [9] = tested on: Amaranthus retroflexus (AMARE); experiment: Herbicidal post-emergence action, 1280 g/ha, AMARE; conditions: visual grading vs untreated controls
# From the text: as §2, with “plants).” for “plants). Tables B1 to B11 below, show the effects of selected compounds of the general formula (I) according to Table 1 on various harmful plants using an application rate corresponding to 1280 g/ha obtained by the experimental procedure mentioned above.”
# as §3
# [10] = tested on: Amaranthus retroflexus (AMARE); experiment: Herbicidal post-emergence action, 320 g/ha, AMARE; conditions: visual grading after ca. 3 weeks
# From the text: as §2, with “plants).” for “plants). Tables B1 to B11 below, show the effects of selected compounds of the general formula (I) according to Table 1 on various harmful plants using an application rate corresponding to 1280 g/ha obtained by the experimental procedure mentioned above.”
# (§4) Tables D1 to D8 below, show the effects of selected compounds of the general formula (I) according to Table 1 on various harmful plants using an application rate corresponding to 320 g/ha obtained by the experimental procedure mentioned above.
# [11] = tested on: Setaria viridis (SETVI); experiment: Herbicidal pre-emergence action, 1280 g/ha (Table A8); conditions: visual grading after ca. 3 weeks vs untreated controls
# From the text: as §1
# [12] = tested on: Kochia scoparia (KCHSC); experiment: Herbicidal pre-emergence action, 1280 g/ha (Table A4); conditions: visual grading after ca. 3 weeks vs untreated controls
# From the text: as §1
# [13] = tested on: Matricaria inodora (MATIN); experiment: Herbicidal pre-emergence action, 1280 g/ha (Table A6); conditions: visual grading after ca. 3 weeks vs untreated controls
# From the text: as §1
# [14] = tested on: Amaranthus retroflexus (AMARE); experiment: Herbicidal pre-emergence action, 1280 g/ha (Table A11); conditions: visual grading after ca. 3 weeks vs untreated controls
# From the text: as §1
# [15] = tested on: Abutilon theophrasti (ABUTH); experiment: Herbicidal post-emergence action, 1280 g/ha (Table B1); conditions: visual assessment after ca. 3 weeks vs untreated controls
# From the text: as §2
# [16] = tested on: Kochia scoparia (KCHSC); experiment: Herbicidal post-emergence action, 320 g/ha, KCHSC; conditions: visual grading after ca. 3 weeks
# From the text: as §2, with “plants).” for “plants). Tables B1 to B11 below, show the effects of selected compounds of the general formula (I) according to Table 1 on various harmful plants using an application rate corresponding to 1280 g/ha obtained by the experimental procedure mentioned above.”
# as §4
# [17] = tested on: Matricaria inodora (MATIN); experiment: Herbicidal post-emergence action, 320 g/ha, MATIN; conditions: visual grading after ca. 3 weeks
# From the text: as §2, with “plants).” for “plants). Tables B1 to B11 below, show the effects of selected compounds of the general formula (I) according to Table 1 on various harmful plants using an application rate corresponding to 1280 g/ha obtained by the experimental procedure mentioned above.”
# as §4
# [18] = tested on: Stellaria media (STEME); experiment: Herbicidal post-emergence action, 320 g/ha, STEME; conditions: visual grading after ca. 3 weeks
# From the text: as §2, with “plants).” for “plants). Tables B1 to B11 below, show the effects of selected compounds of the general formula (I) according to Table 1 on various harmful plants using an application rate corresponding to 1280 g/ha obtained by the experimental procedure mentioned above.”
# as §4
# [19] = tested on: Veronica persica (VERPE); experiment: Herbicidal post-emergence action, 320 g/ha, VERPE; conditions: visual grading after ca. 3 weeks
# From the text: as §2, with “plants).” for “plants). Tables B1 to B11 below, show the effects of selected compounds of the general formula (I) according to Table 1 on various harmful plants using an application rate corresponding to 1280 g/ha obtained by the experimental procedure mentioned above.”
# as §4
# [20] = tested on: Abutilon theophrasti (ABUTH); experiment: Herbicidal post-emergence action, 320 g/ha, ABUTH; conditions: visual grading after ca. 3 weeks
# From the text: as §2, with “plants).” for “plants). Tables B1 to B11 below, show the effects of selected compounds of the general formula (I) according to Table 1 on various harmful plants using an application rate corresponding to 1280 g/ha obtained by the experimental procedure mentioned above.”
# as §4
smiles,measurement,setting,value
"Cc1nn(C)c(=O)c(Oc2ccccc2C(F)(F)F)c1O [Example I-007, 5-hydroxy-2,6-dimethyl-4-[2-(trifluoromethyl)phenoxy]pyridazin-3-one]",herbicidal effect LOLRI,[1],90%
same,herbicidal effect POAAN,[2],100%
same,herbicidal effect STEME,[3],100%
same,herbicidal effect KCHSC,[4],100%
same,herbicidal effect LOLRI,[5],90%
same,herbicidal effect MATIN,[6],90%
same,herbicidal effect STEME,[7],100%
same,herbicidal effect VERPE,[8],90%
same,herbicidal effect AMARE,[9],90%
same,herbicidal effect AMARE,[10],90%
"CCOC(=O)Oc1c(C)nn(C)c(=O)c1Oc1ccccc1C(F)(F)F [Example I-009, [1,3-dimethyl-6-oxo-5-[2-(trifluoromethyl)phenoxy]pyridazin-4-yl] ethyl carbonate]",herbicidal effect SETVI,[11],100%
CCOC(=O)Oc1c(C)nn(C)c(=O)c1Oc1ccccc1OC(F)(F)F [Example I-013],herbicidal effect KCHSC,[12],90%
same,herbicidal effect LOLRI,[1],100%
same,herbicidal effect MATIN,[13],100%
same,herbicidal effect STEME,[3],100%
same,herbicidal effect AMARE,[14],90%
same,herbicidal effect ABUTH,[15],100%
same,herbicidal effect KCHSC,[4],100%
same,herbicidal effect LOLRI,[5],100%
same,herbicidal effect MATIN,[6],100%
same,herbicidal effect STEME,[7],100%
same,herbicidal effect VERPE,[8],100%
same,herbicidal effect AMARE,[9],90%
same,herbicidal effect KCHSC,[16],100%
same,herbicidal effect MATIN,[17],90%
same,herbicidal effect STEME,[18],100%
same,herbicidal effect VERPE,[19],90%
same,herbicidal effect AMARE,[10],90%
Cc1ccccc1Oc1c(O)c(C)nn(C)c1=O [Example I-017],herbicidal effect ABUTH,[15],90%
same,herbicidal effect KCHSC,[4],100%
same,herbicidal effect VERPE,[8],90%
same,herbicidal effect AMARE,[9],90%
same,herbicidal effect ABUTH,[20],90%
same,herbicidal effect VERPE,[19],90%
same,herbicidal effect AMARE,[10],90%
